Laboratory results published in patent publication US6686363B2, “Cyclopropyl containing oxazolidinone antibiotics and derivatives thereof” (Kyorin Pharmaceutical Co., Ltd., priority 2001, dated 2004).
≈ marks a conversion by molar mass, not a printed value.

Assays:
Assay type in all cases: cell-based
[1] = system: Enterococcus faecium VRQR (vancomycin resistant, quinolone resistant); assay: MIC, agar dilution method on Mueller-Hinton agar with 5% defibrinated horse blood; conditions: 5% horse blood, 5% CO2, 35C, 24 hours
Method: (§1) The following in vitro results were obtained based on an agar dilution method except for C. pneumoniae. The activity is presented as the minimum inhibitory concentration (MIC) S. aureus and M. catarrhalis were tested on Mueller-Hinton agar, using an approximate inoculum of 1×10^4 cfu/spot an incubation temperature of 35C for 24 hours. The MIC was defined as the lowest concentration at which no visible bacterial growth was observed.
(§2) Streptococci and enterococci were tested on Mueller-Hinton agar supplemented with 5% defibrinated horse blood, using an approximate inoculum of 1×10^4 cfu/spot an incubation temperature of 35C in an atmosphere of 5% CO2 for 24 hours. The MIC was defined as the lowest concentration at which no visible bacterial growth was observed.

[2] = system: Streptococcus pneumoniae IID553; assay: as above; conditions: 5% horse blood, 5% CO2, 35C, 24 hours
Method: as §1, §2

[3] = system: Streptococcus pneumoniae PRQR (penicillin resistant, quinolone resistant); assay: as above; conditions: 5% horse blood, 5% CO2, 35C, 24 hours
Method: as §1, §2

[4] = system: Streptococcus pyogenes IID692; assay: as above; conditions: 5% horse blood, 5% CO2, 35C, 24 hours
Method: as §1, §2

[5] = system: Moraxella catarrhalis ATCC25238; assay: MIC, agar dilution method on Mueller-Hinton agar; conditions: 35C, 24 hours
Method: as §1

[6] = system: Staphylococcus aureus CR (chloramphenicol resistant); assay: MIC, agar dilution method on Mueller-Hinton agar; conditions: 35C, 24 hours
Method: as §1

[7] = system: Staphylococcus aureus MR (methicillin resistant); assay: MIC, agar dilution method on Mueller-Hinton agar; conditions: 35C, 24 hours
Method: as §1

[8] = system: Staphylococcus aureus Smith; assay: MIC, agar dilution method on Mueller-Hinton agar; conditions: 35C, 24 hours
Method: as §1

[9] = system: Chlamydia pneumoniae ATCCVR-1360; assay: MIC, chlamydial inclusion assay in infected HeLa 229 cells; conditions: ATCCVR1360; Chlamydia pneumoniae ATCCVR-1360 in HeLa 229 cells; 72 hours, lowest concentration with no inclusion
Method: C. pneumoniae was tested using minimum essential medium supplemented with 10% heat-inactivated fetal bovine serum, 2 mM L-glutamine, […] cycloheximide and non essential amino acid. HeLa 229 cells were inoculated with 10^4 inclusion-forming units of C. pneumoniae strain per mL. Infected cells were incubated with test compounds in complete medium at 35C in an atmosphere of 5% CO2 for 72 hours. […] The MIC was defined as the lowest concentration at which no inclusion was observed.

| MIC [1] [µg/mL] | MIC [2] [µg/mL] | MIC [3] [µg/mL] | MIC [4] [µg/mL] | MIC [5] [µg/mL] | MIC [6] [µg/mL] | MIC [7] [µg/mL] | MIC [8] [µg/mL] | MIC [9] [µg/mL] | SMILES |
| --- | --- | --- | --- | --- | --- | --- | --- | --- | --- |
| 2 (≈ 5.93 µM) | 2 (≈ 5.93 µM) | 1 (≈ 2.96 µM) | 1 (≈ 2.96 µM) | 4 (≈ 11.9 µM) | 16 (≈ 47.4 µM) | 1 (≈ 2.96 µM) | 1 (≈ 2.96 µM) | 8 (≈ 23.7 µM) | CC(=O)NC[C@H]1CN(c2ccc(N3CCOCC3)c(F)c2)C(=O)O1 [Linezolid, reference compound] |
| 0.5 (≈ 1.58 µM) | 1 (≈ 3.15 µM) | 1 (≈ 3.15 µM) | 0.5 (≈ 1.58 µM) | 4 (≈ 12.6 µM) | 4 (≈ 12.6 µM) | 0.5 (≈ 1.58 µM) | 0.5 (≈ 1.58 µM) | 0.5 (≈ 1.58 µM) | CC(=O)NC[C@H]1CN(c2ccc(C3(C#N)CC3)c(F)c2)C(=O)O1 [example 7, N-[5(S)-3-[4-(1-Cyanocyclopropan-1-yl)-3-fluorophenyl]-2-oxooxazolidin-5-ylmethyl]acetamide] |
| 0.25 (≈ 0.75 µM) | 0.25 (≈ 0.75 µM) | 0.25 (≈ 0.75 µM) | 0.125 (≈ 0.375 µM) | 0.5 (≈ 1.5 µM) | 0.5 (≈ 1.5 µM) | 0.125 (≈ 0.375 µM) | 0.125 (≈ 0.375 µM) | 0.25 (≈ 0.75 µM) | CC(=S)NC[C@H]1CN(c2ccc(C3(C#N)CC3)c(F)c2)C(=O)O1 [example 8, N-[5(S)-3-[4-(1-Cyanocyclopropan-1-yl)-3-fluorophenyl]-2-oxooxazolidin-5-ylmethyl]thioacetamide] |
| 1 (≈ 2.92 µM) | 1 (≈ 2.92 µM) | 1 (≈ 2.92 µM) | 1 (≈ 2.92 µM) | 8 (≈ 23.4 µM) | 16 (≈ 46.7 µM) | 0.5 (≈ 1.46 µM) | 0.5 (≈ 1.46 µM) |  | N#CC1(c2ccc(N3C[C@H](CNc4ccon4)OC3=O)cc2F)CC1 [example 18, 5(S)-3-[4-(1-Cyanocyclopropan-1-yl)-3-fluorophenyl]-5-[N-(1,2-isoxadiazolyl-3-yl)amino]methyloxazolidin-2-one] |
| 0.25 (≈ 0.716 µM) | 0.25 (≈ 0.716 µM) | 0.125 (≈ 0.358 µM) | 0.125 (≈ 0.358 µM) | 0.5 (≈ 1.43 µM) | 2 (≈ 5.72 µM) | 0.125 (≈ 0.358 µM) | 0.125 (≈ 0.358 µM) | 4 (≈ 11.4 µM) | COC(=S)NC[C@H]1CN(c2ccc(C3(C#N)CC3)c(F)c2)C(=O)O1 [example 32, O-Methyl N-[5(S)-3-[4-(1-Cyanocyclopropan-1-yl)-3-fluorophenyl]-2-oxooxazolidin-5-ylmethyl]thiocarbonate] |
